Experimental data published in publication PMC11352859, “Functionalized Congeners of 2H-Chromene P2Y6 Receptor Antagonists” (Cells, 2024).
Where “and” joins values, the source holds several entries; their conditions need not be identical. Equal values may be shown once. Read-outs that look alike come from different tables or passages of the source.

Key:
α2A = target: T1, α2A (Homo sapiens, UniProt P08913); assay: PDSP binding assay, α2A
T1 construct: NIMH Psychoactive Drug Screening Program (PDSP)
T1 sequence (P08913 1-465): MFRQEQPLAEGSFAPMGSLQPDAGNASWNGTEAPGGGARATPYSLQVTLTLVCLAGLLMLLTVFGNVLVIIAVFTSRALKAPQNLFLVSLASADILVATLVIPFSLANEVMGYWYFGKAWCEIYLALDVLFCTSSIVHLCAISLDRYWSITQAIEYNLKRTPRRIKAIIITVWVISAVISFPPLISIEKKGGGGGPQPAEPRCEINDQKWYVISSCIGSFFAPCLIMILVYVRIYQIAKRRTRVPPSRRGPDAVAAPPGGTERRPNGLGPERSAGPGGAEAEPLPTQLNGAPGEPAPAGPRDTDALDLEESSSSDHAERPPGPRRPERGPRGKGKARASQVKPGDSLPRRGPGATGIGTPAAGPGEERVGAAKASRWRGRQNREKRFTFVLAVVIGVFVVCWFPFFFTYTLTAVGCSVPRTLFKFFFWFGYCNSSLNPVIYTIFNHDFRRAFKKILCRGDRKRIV
Source text: (§1) Table S2. Off-target screening (to replace table later). We thank Dr. Bryan L. Roth (Univ. North Carolina at Chapel Hill) and National Institute of Mental Health's Psychoactive Drug Screening Program (Contract # HHSN-271-2008-00025-C) for screening data. Reference: Besnard et al.
(§2) Procedures: https://pdsp.unc.edu/pdspweb/content/UNC-CH%20Protocol%20Book.pdf […]
(§3) nucleosides were found at the following sites (human unless noted): 5HT1A, 5HT1B, 5HT1D, […]
(§4) β3, BZP rat brain site, D1, D2, D3, D4, D5, GABAA, H1, H2, H3, H4, M1, M2, M5, δ-opioid receptor (DOR), κ-opioid receptor (KOR), μ-opioid receptor (MOR), σ1, σ2, DAT, NET, SERT. Ki values […]
(§5) Compound # PDSP # Receptor LogKi Ki (nM)

H2 = target: T2, H2 (Homo sapiens, UniProt P25021); assay: PDSP binding assay, H2; settings: mean, n = 2
T2 construct: NIMH Psychoactive Drug Screening Program (PDSP)
T2 sequence (P25021 whole entry): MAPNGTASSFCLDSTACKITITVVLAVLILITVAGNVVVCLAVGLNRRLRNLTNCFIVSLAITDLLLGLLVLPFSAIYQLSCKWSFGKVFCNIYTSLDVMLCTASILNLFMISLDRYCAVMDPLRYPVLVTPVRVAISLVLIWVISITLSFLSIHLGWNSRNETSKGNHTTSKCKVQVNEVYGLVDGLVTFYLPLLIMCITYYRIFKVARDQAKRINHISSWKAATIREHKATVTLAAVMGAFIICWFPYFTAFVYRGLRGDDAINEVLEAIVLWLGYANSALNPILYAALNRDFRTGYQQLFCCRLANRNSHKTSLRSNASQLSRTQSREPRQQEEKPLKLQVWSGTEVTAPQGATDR
Source text: as §1, §2, §3, §4, §5

[1] = test system: hP2Y6R-1321N1 human astrocytoma cells; assay: MTT cell viability assay, hP2Y6R-1321N1 astrocytoma cells; type: cell-based; settings: for % survival: P2Y6R-astrocytoma, 12 h, MTT
Experimental: The 1321N1 astrocytoma (hP2Y6R-overexpressing) and HeLa (non-transfected) cell lines were cultured in Dulbecco’s modified Eagle’s medium (DMEM, HyClone, Logan, UT, USA) supplemented with 5% heat-inactivated fetal bovine serum (FBS, HyClone, UT, USA), 100 U/mL penicillin, and 100 µg/mL streptomycin in 5% CO2 at 37 °C. The cell viability was determined using an MTT kit (Sigma, St. Louis, MO, USA) according to the manufacturer’s instructions. Briefly, 1 × 10^4 cells were seeded in triplicate in 96-well plates. The hP2Y6R-astrocytoma and HeLa cells were treated with a P2Y6R agonist and antagonists at a range of concentrations and incubated for 12 h. The cell viability was measured at 490 nm using a SpectraMax-M5 Spectrometer (Molecular Devices, San Jose, CA, USA).

D2 = target: T3, D2 (Homo sapiens, UniProt P14416); assay: PDSP binding assay, D2; settings: Table S2, single determination
T3 construct: NIMH Psychoactive Drug Screening Program (PDSP)
T3 sequence (P14416 whole entry): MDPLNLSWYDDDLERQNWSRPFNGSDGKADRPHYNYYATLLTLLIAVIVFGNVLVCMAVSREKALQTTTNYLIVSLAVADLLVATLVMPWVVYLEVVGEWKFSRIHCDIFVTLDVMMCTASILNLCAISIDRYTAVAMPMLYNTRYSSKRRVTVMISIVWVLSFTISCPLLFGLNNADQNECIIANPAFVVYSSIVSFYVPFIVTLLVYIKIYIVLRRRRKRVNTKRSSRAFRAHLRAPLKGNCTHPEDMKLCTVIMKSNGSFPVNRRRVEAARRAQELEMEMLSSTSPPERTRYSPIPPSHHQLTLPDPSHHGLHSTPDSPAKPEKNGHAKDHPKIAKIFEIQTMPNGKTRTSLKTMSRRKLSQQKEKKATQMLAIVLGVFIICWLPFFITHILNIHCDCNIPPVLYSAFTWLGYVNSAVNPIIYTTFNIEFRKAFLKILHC
Source text: as §1, §2, §3, §4, §5

For `CC(C)(C)OC(=O)NCCCCCCCC#Cc1ccc2c(c1)C=C([N+](=O)[O-])C(C(F)(F)F)O2` (stereo not drawn) [Compound 30, tert-Butyl (9-(3-nitro-2-(trifluoromethyl)-2H-chromen-6-yl)non-8-yn-1-yl)carbamate], the Ki (α2A; PDSP, mean, n = 2, read-out: Ki, α2A) was 86 nM, the Ki (α2A; Table S2, single determinations, read-out: Ki (nM), Alpha2A) was 80.2 nM and 90.7 nM and the Ki (H2) was 0.5 µM. The “% survival” value ([1]; 0.05 µM) was 98%, the “% survival” value ([1]; 0.1 µM) was 98% and the “% survival” value ([1]; 0.5 µM) was 83%. The “% survival” value ([1]; 1 µM) was 77%, the inhibition of viability ([1]; hP2Y6R-1321N1 cells, at 1 µM, 12 h exposure) was 23% and the Ki (D2) was > 10000 nM.
